“Also recorded” adds a separate entry of the source.
Experiments:
PD-L1 protein = PD-L1 protein (Homo sapiens, UniProt Q9NZQ7); assay: SPR affinity analysis with PD-L1 protein (Biacore 8K, CM5 chip); type: binding
Description: Biacore 8K high-throughput molecular interaction analysis system, CM5 chip, and phosphate buffered saline (PBS) buffer as the mobile phase of the instrument were used in the whole process of the surface plasmon resonance experiment. The PD-L1 was coupled to the activated CM5 chip using an amino coupling kit. […] After 60 s of dissociation, the chip was regenerated with 10 mM glycine-HCl (pH2.0) and 3 M NaCl at a flow rate of 30 L/min for 30 s. Biacore Evaluation 3.1 software and GraphPad Prism 8.0 software were used to analyze the data and obtain the response curve.

PD-1 protein = PD-1 protein (Homo sapiens, UniProt Q15116); assay: SPR affinity analysis with PD-1 protein; type: binding
PD-L1 and PD-1 protein = PD-L1 and PD-1 protein (Homo sapiens, UniProt Q9NZQ7); assay: SPR competitive experiment between ME-2 and PD-1 for PD-L1; type: binding
Description: Biacore 8K high-throughput molecular interaction analysis system, CM5 chip, and phosphate buffered saline (PBS) buffer as the mobile phase of the instrument were used in the whole process of the surface plasmon resonance experiment. The PD-L1 was coupled to the activated CM5 chip using an amino coupling kit. […] The ME-2 polysaccharide solution with different concentrations was passed through the coupling channel and the blank channel at a certain velocity by using the running buffer. After 60 s of dissociation, the chip was regenerated with 10 mM glycine-HCl (pH2.0) and 3 M NaCl at a flow rate of […] for 30 s. Biacore Evaluation 3.1 software and GraphPad Prism 8.0 software were used to analyze the data and obtain the response curve.

NCI-H157 cells [1] = assay: CCK8 in vitro cytotoxicity assay, NCI-H157; type: cell-based; conditions: CCK8, gradient concentration, 24 h
Description: (§1) CCK8 was used to detect the cytotoxicity of ME-2 to NCI-H157 and LLC cells. H157 or LLC cells were inoculated overnight in 96-well cell culture plate at a concentration of 1×10^4/mL. The gradient concentration of ME-2 was prepared in the medium, and CCK8 solution was added into the 96-well cell culture plate after 24 h of action. OD values were measured at 450 nm by an enzyme-linked immunosorbent assay (ELISA) instrument.

LLC cells = assay: CCK8 in vitro cytotoxicity assay, LLC; type: cell-based, mouse; conditions: CCK8, gradient concentration, 24 h
Description: as §1

PD-L1 [2] = assay: Western blot of PD-L1 expression in tumor cells with high expression of PD-L1 (NCI-H157, U2OS, SW620); type: cell-based, human; conditions: concentration and time gradient, most significant at 2 mg/mL, 24 h
Description: (§2) The tumor cells in question were non-small cell lung cancer NCI-H157, mouse lung cancer LLC, colon cancer SW620, human osteosarcoma U2OS, non-small cell lung cancer A549, liver cancer HepG-2, and breast cancer MCF-7. The total protein of the above cells was extracted; the protein concentration was determined by bicinchoninic acid (BCA) assay. The samples were loaded and subjected to sodium dodecyl sulfate (SDS) polyacrylamide gel electrophoresis (SDS-PAGE); the membrane was blocked and immunoreacted after transfer, and an enhanced chemiluminescence (ECL) solution was used for development. Picture processing and gray value analysis were performed on the exposure results on ImageJ software. According to the experimental results, the cell lines with high expression of PD-L1 were selected as follows: NCI-H157, LLC, U2OS, and SW620; and the cell lines with low or no expression of PD-L1 were A549, HepG-2, and MCF-7 (see FIGS. 3A and 3B).
(§3) Concentration and time gradient ME-2 were applied to act on four tumor cell lines with high expression of PD-L1, respectively. The Western blot method was used for detection, and the experimental method was shown above. […] The downregulation of tumor cell baseline PD-L1 was concentration dependent (see FIG. 5A) and time dependent (see FIG. 5B). The downregulation of PD-L1 was most significant when the dose concentration was 2 mg/mL and the administration time was 24 h.
A Western blot was used to detect the effects of Auricularia auricula total polysaccharide METP and Auricularia auricula deacetylated monomeric polysaccharide dME-2 on the expression of PD-L1 in H157 cells, and Auricularia auricula monomeric polysaccharide ME-2 was used as a positive control. The experimental procedure was described in Example 1.

PD-L1 [3] = assay: Western blot of PD-L1 expression in mouse lung cancer LLC cells; type: cell-based; conditions: concentration and time gradient, most significant at 2 mg/mL, 24 h
Description: as §2
as §3, with “The downregulation of PD-L1 was most significant when the dose concentration was 2 mg/mL and the administration time was 24 h.” left out

PD-L1 [4] = assay: Western blot of IFN-γ-induced PD-L1 expression (A549, HepG-2, MCF-7); type: cell-based; conditions: ME-2 and IFN-γ co-acted on cells
Description: as §2
Interferon IFN-γ is an important factor in inducing PD-L1 expression in the tumor immune microenvironment. We used low-expression PD-L1 tumor cells (non-small cell lung cancer A549, liver cancer HepG-2, and breast cancer MCF-7). ME-2 and IFN-γ were co-acted on cells; their expression abundance was detected by the Western blot method, and the experimental method was shown above.

PD-L1 [5] = assay: Flow cytometry of PD-L1 expression in NCI-H157 cells; type: cell-based; conditions: flow cytometry, 1, 2 and 5 mg/mL
Description: (§4) NCI-H157 or LLC cells in a 6-well plate were treated with low, medium, and high doses of ME-2 at 1, 2, and 5 mg/mL, respectively, for corresponding time, and the cells were stained with a fluorescent antibody. Fluorescence intensity was measured by flow cytometry.

PD-L1 [6] = assay: Flow cytometry of PD-L1 expression in LLC cells; type: cell-based, mouse; conditions: flow cytometry, 1, 2 and 5 mg/mL
Description: as §4

PD-L1/PD-1 interaction = target: T1, PD-L1/PD-1 interaction (Homo sapiens, UniProt Q9NZQ7); assay: PD-1Fc binding to PD-L1 on NCI-H157 cells (flow cytometry and confocal); type: cell-based; conditions: 24 h of ME-2 treatment, human recombinant PD-1Fc, dose-dependent
T1 construct: NCI-H157 cells were inoculated on a 24-well cell culture plate; endogenous in cells; host or cells: NCI-H157
Description: NCI-H157 cells were inoculated on a 24-well cell culture plate and subjected to gradient dosing treatment for time needed after cell adhesion. The cells were fixed at room temperature with a 4% solution of paraformaldehyde. The cells were washed with PBS buffer several times. An appropriate amount of human recombinant PD-1Fc protein was added to the fixed cells and incubated for 1 h, and the cells were washed with PBS buffer several times. Anti-human IgG (Alexa Fluor 488) fluorescent secondary antibody was added and incubated for 30 min. After nuclear staining, a glycerol sealing layer was applied. Green fluorescence signals were observed under a fluorescence microscope and photographed for statistics, or the fluorescence intensity was measured by flow cytometry.

NCI-H157 cells [7] = assay: Co-culture of H157 tumor cells with stimulated Jurkat T cells, crystal violet staining; type: cell-based; conditions: gradient dosing, co-culture 24 h
Description: In order to further evaluate the anti-tumor effect of ME-2 in the experiment of co-culture of tumor cells and T cells, H157 cells were inoculated into a 24-well culture plate, subjected to gradient dosing treatment for time needed, and co-cultured with stimulated Jurkat T cells for 24 h. The tumor survival was observed under a microscope after 4% polyformaldehyde fixation and crystal violet staining. The specific manifestation was the difference in the depth of staining in the different dosages and concentrations of ME-2.

[8] = test system: LLC lung cancer transplanted tumor; assay: Mouse lung cancer (LLC) transplanted tumor model

T1 sequence (Q9NZQ7 19-290): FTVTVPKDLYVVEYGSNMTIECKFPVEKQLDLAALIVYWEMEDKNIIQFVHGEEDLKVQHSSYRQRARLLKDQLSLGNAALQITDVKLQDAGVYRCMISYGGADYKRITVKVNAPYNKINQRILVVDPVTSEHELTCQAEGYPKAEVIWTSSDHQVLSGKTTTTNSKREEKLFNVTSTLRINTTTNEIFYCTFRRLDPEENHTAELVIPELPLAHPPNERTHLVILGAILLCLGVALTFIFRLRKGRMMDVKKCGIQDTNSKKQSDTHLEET
PD-L1 protein, sequence (Q9NZQ7 19-290, species assumed): as the sequence (Q9NZQ7 19-290) above
PD-1 protein, sequence (Q15116 25-288): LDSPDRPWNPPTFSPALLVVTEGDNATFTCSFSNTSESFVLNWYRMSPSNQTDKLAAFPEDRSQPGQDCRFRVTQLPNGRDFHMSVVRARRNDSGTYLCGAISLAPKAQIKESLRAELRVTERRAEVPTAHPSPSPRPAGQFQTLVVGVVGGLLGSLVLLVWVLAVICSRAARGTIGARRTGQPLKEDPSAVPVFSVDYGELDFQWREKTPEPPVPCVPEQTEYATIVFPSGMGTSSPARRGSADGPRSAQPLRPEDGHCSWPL
PD-L1 and PD-1 protein, sequence (Q9NZQ7 19-238 limits assumed, species assumed): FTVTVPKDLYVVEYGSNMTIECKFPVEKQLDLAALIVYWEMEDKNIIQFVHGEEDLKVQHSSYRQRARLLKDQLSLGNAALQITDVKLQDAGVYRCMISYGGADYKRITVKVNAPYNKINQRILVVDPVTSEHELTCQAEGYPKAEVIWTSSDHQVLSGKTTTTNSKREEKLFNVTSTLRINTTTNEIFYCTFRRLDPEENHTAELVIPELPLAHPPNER

With “high-acetyl glucuronoxylogalactoglucomannan [ME-2]” the “affinity to PD-L1 protein (in words)” value (PD-L1 protein) was “strong affinity”, the “affinity to PD-1 protein (in words)” value (PD-1 protein) was “no affinity” and the “binding of PD-L1 and PD-1 protein with increasing concentration of ME-2” value (PD-L1 and PD-1 protein) was “significantly inhibited”. For the same substance, the “cytotoxicity / proliferation of NCI-H157 cells” value (NCI-H157 cells [1]) was “no obvious cytotoxicity”, the “cytotoxicity / proliferation of LLC cells” value (LLC cells) was “no obvious cytotoxicity” and the “abundance of PD-L1 in NCI-H157 cells” value (PD-L1 [2]) was “significantly down-regulated”. The “abundance of PD-L1 in SW620 cells” value (PD-L1 [2]) was “significantly down-regulated”, the “abundance of PD-L1 in U2OS cells” value (PD-L1 [2]) was “significantly down-regulated” and the “abundance of PD-L1 in LLC cells” value (PD-L1 [3]) was “significantly down-regulated”. The “IFN-γ-induced expression of PD-L1 in A549 cells” value (PD-L1 [4]) was “significantly down-regulated”, the “IFN-γ-induced expression of PD-L1 in HepG-2 cells” value (PD-L1 [4]) was “significantly down-regulated” and the “IFN-γ-induced expression of PD-L1 in MCF-7 cells” value (PD-L1 [4]) was “significantly down-regulated”. For the same substance, the “PD-L1 fluorescence intensity in NCI-H157 cells” value (PD-L1 [5]) was “concentration dependent inhibition”, the “PD-L1 fluorescence intensity in LLC cells” value (PD-L1 [6]) was “concentration dependent inhibition” and the “PD-1 binding to PD-L1 in NCI-H157 cells” value (PD-L1/PD-1 interaction) was “decreased”. For the same substance, the “sensitivity of NCI-H157 cells to killing by Jurkat T cells” value (NCI-H157 cells [7]) was “more sensitive to the killing of Jurkat T cells”, the “HE staining of vital organs of mice” value ([8]; ME-2 100 mg/kg) was “did not cause organic changes” and the “serum indexes of mice” value ([8]; ME-2 100 mg/kg) was “consistent with those of the control group”. The “tumor growth in model mice” value ([8]; ME-2 100 mg/kg, oral administration, 100 mg/kg) was “obvious better than a positive drug; also recorded: effectively inhibited”, the “toxic and side effects on mice” value ([8]; ME-2 at the dosage used (100 mg/kg)) was “no obvious toxic and side effects” and the “body weight of mice” value ([8]; ME-2 experiment, all groups) was “no significant difference”. The “PD-L1 mRNA level in mouse tumors” value ([8]; qPCR, ME-2 treated mice) was “significantly reduce”.

From patent US20250049869A1, “USE OF AURICULARIA AURICULA TOTAL POLYSACCHARIDE OR MONOMERIC POLYSACCHARIDE IN PREPARATION OF PD-L1 INHIBITOR” (priority 2023, published 2025)
